Laboratory results: PubChem BioAssay AID179 (DTP/NCI, 2004)
pEC50, pIC50: −log10 of the molar value. Where “and” joins values, the source holds several entries; their conditions need not be identical. Identical values can stand only once. Calls of active or inactive are those of the source.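 How the source made its calls: active means compounds giving half or more protection of infected cells from virus-caused growth loss, again on retest; inactive means the rest.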

Test system: CEM cells HIV-1 protection, formazan growth assay
Assay: NCI AIDS Antiviral Assay
Details: for pIC50: measured here: growth of uninfected CEM cells
Procedure, shortened: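 Soluble formazan readout of cell growth; CEM cells ± HIV-1; 5 drug concs. ≥50% protection → retest; ≥50% again = moderately active; reproducible 100% = confirmed active.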

SMILES | pEC50 | pIC50 | outcome
Nc1ncc(Cl)c(NCC2(CO)CC(CCc3ccccc3)C2)n1 (stereo unspecified) | < 3.70 | 5.49 | –
CC(=O)n1cc(CC(C)O)c(=O)[nH]c1=O (stereo unspecified) | < 2.93 | < 2.93 | –
CCOC(=O)c1nc2cc(C(F)(F)F)ccc2nc1Oc1ccc(C#N)cc1 | < 3.70 | 4.03 | –
C=C1CC[C@@H](O)[C@]2(C)CC[C@@H](C(C)(C)O)[C@@H](OC3OC(CO)C(O)C(O)C3O)C12 (stereo partly specified) | < 3.54 | < 3.54 | –
Cc1ccc(/C(C#N)=C/c2cccc([N+](=O)[O-])c2)cc1 | < 3.70 | < 3.70 | –
C/C(Cl)=N/OC(=O)Nc1ccc(S(N)(=O)=O)c(C)c1 | < 4.70 | 5.06 | –
CCCCCCC(c1cc(Cl)c(OC)c(C(=O)OC)c1)c1cc(Cl)c(OC)c(C(=O)OC)c1 | < 4.44 | < 4.44 | –
CN(Cc1cnc2nc(N)nc(N)c2n1)c1ccc(C(=O)NC(CCC(=O)NCCC(P(=O)(O)O)P(=O)(O)O)C(=O)O)cc1 (stereo unspecified) | < 3.70 | 5.44 | –
Cn1c(=O)c([N+](=O)[O-])c2[nH]ncn2c1=O | < 3.70 | < 3.70 | –
Cc1ccn2c(c1)nc1nc3ccccc3nc12 | < 3.67 | 3.96 | –
COC1CCC2=CCC3C(=O)N(c4ccccc4)C(=O)C3C21 (stereo unspecified) | < 3.22 | < 3.22 | –
CO[C@@H]1[C@H](O)c2coc3c2[C@@](C)(c2ccc4c(c2C3=O)CCC4=O)[C@@H]1O | < 3.70 | 4.54 | –
CC1(C)C(C#N)=[N+]([O-])C(C)(C)N1O | < 3.70 | 3.91 | –
OCC1OC(n2cnc3c(Cl)ncnc32)C(O)C1O (stereo unspecified) | – | – | inactive
C=C(c1ccc(OC)cc1)C(CC)c1ccc(OC)cc1 (stereo unspecified) | < 3.70 | 4.43 | –
CCOC(=O)Nc1nc2ccc(Cn3cccc3)cc2[nH]1 | < 4.88 | 6.10 | –
CCCCN(C)C(=O)C1=C(C)NC(C)=C(C(=O)N(C)CCCC)C1 | < 3.70 | 3.99 | –
CSc1cc(-c2ccccn2)nc(-c2ccccn2)c1 | < 5.70 | 6.57 | –
O=C(c1ccccc1)c1oc2ccc(Br)cc2c1-c1cnn(-c2ccccc2)c1 | – | – | inactive
COc1ccc(N=Nc2ccc3oc(=O)c(C(=O)Nc4ccccc4C)cc3c2)cc1 | < 3.70 | 4.18 | –
CCOC(=O)N1CCN(Cc2cc(=O)n3ccc(C)cc3n2)CC1 | < 3.70 | < 3.70 | –
Nc1cc(S(=O)(=O)O)c(O)c2c1C(=O)c1c(O)c(S(=O)(=O)O)cc(N)c1C2=O | – | – | inactive

SMILES | pEC50 | pIC50 | outcome
O=c1[nH][nH]c(=O)c2c1[nH]c(=S)n2Cc1ccccc1 | < 3.04 | < 3.04 | –
CNC(=O)OC(C)CN1c2ccccc2Sc2ccccc21 (stereo unspecified) | < 3.70 | 4.38 | –
COC(=O)Nc1cn2c(n1)SCC2 | < 3.70 | < 3.70 | –
CCNC12CCC(C1)C(C)(C)C2=O (stereo unspecified) | < 3.70 | < 3.70 | –
COC1/C=C\OC2(C)Oc3c(C)c(O)c4c(c3C2=O)C(=O)C=C(NC(=O)/C(C)=C\C=C/C(C)C(O)C(C)C(O)C(C)C(OC(C)=O)C1C)C4=O (stereo unspecified) | < 3.70 | 5.57 | –
CCOC(=O)/C=C/SC(C)(C)C(N)C(=O)O (stereo unspecified) | < 3.00 | < 3.00 | –
CC1=NN(c2ccccc2)C(=O)C1=C1SCCCS1 | < 4.33 | < 4.33 | –
O=[N+]([O-])C(/C=C(\Cl)[N+](=O)[O-])=C(N1CCCCC1)N1CCCCC1 | < 3.70 | 4.12 | –
Cc1c([O-])c([O-])c(C)c2c1OCO2.[C-]#[O+].[C-]#[O+].[C-]#[O+].[C-]#[O+].[Re] | < 3.70 | 4.50 | –
O=c1[nH]nc(Cc2ccccc2)[nH]1 | < 3.70 | < 3.70 | –
CN=c1ncc2nc(-c3ccccc3)c(-c3ccccc3)n(C)c-2n1 | – | – | inactive
CC1=CCC[C@H]2[C@](C)(CC3=CC(=O)C(SCC(C)C)=CC3=O)[C@@H](C)CC[C@]12C | < 3.70 | 5.67 | –
Cc1nn(C(=O)c2ccc(Cl)cc2)c2c1C(c1ccccc1[N+](=O)[O-])SC(N)=N2 (stereo unspecified) | < 3.70 | 3.98 | –
CN(C)c1cccc2c(S(=O)(=O)NCCN)cccc12 | < 3.70 | 3.76 | –
O=C(OCc1ccccc1)C(Cc1ccc(OCc2ccccc2)cn1)NC(=O)C(F)(F)F (stereo unspecified) | < 3.70 | 4.48 | –
O=C(C[P+](c1ccccc1)(c1ccccc1)c1ccccc1)c1ccccc1 | < 3.70 | 4.49 and 4.50 and 4.43 | –
COc1nc(N)c(N=O)c(=O)n1C | – | – | inactive
C=CCOc1cc2c(c3oc(=O)cc(CCC)c13)[C@@H](O)[C@H](C)[C@@H](C)O2 | 5.18 | 4.87 | –
O=C(Nc1ccc(Cl)cc1)c1cc2cc(N=Nc3ccccc3Cl)ccc2oc1=O | < 4.78 | < 4.78 | –
CC(=O)O[C@@H]1O[Si](C(C)(C)C)(C(C)(C)C)[C@H](C)[C@H]1C | < 4.00 | < 4.00 | –
COc1ccc2nc3cccc([N+](=O)[O-])c3c(NCCN(CCO)CCO)c2c1 | < 5.70 | 7.01 | –
O=S(=O)(Oc1ccccn1)c1ccc(Br)cc1 | < 3.70 | < 3.70 | –

SMILES | pEC50 | pIC50 | outcome
COc1ccc(C2Oc3c(cccc3-c3c(-c4ccc(O)cc4)oc4cc(O)cc(O)c4c3=O)C(=O)C2O)cc1O (stereo unspecified) | < 3.70 | 3.77 | –
O=C1c2ccccc2C(=O)C1(Br)c1ccccc1 | < 3.70 | < 3.70 | –
O=C1CC(CC(O)C(O)C(O)CO)CC(=O)N1 (stereo unspecified) | < 3.70 | < 3.70 | –
CSCCOC(=O)C(=[N+]=[N-])c1ccc([N+](=O)[O-])cc1 | – | – | inactive
CC1(C)CC(=O)C2=C(C1)Nc1ccc(Cl)cc1NC2c1ccccc1 (stereo unspecified) | < 3.70 | 4.12 | –
O=C(O)/C=C\C(=O)Nn1c(Cc2ccc(Cl)cc2)n[nH]c1=O | < 3.70 | < 3.70 | –
Cn1nc2ccc3nccc(NCCNCCCl)c3c2n1 | < 5.93 | < 5.93 | –
O=S(=O)(N/N=C1\CC2CCC1C2)c1ccccc1 (stereo unspecified) | < 3.70 | < 3.70 | –
Cc1cccc(Nc2cn(COCc3ccccc3)c(=O)[nH]c2=O)c1 | < 3.70 | 4.09 | –
CCOC(=O)C1N=[N+](c2ccccc2)C(=O)/C1=C\n1c(=S)[nH]c2ccc([N+](=O)[O-])cc21 (stereo unspecified) | < 3.70 | 3.97 | –
Cc1ccc(-c2n[nH]c(CC#N)n2)cc1 | < 3.70 | < 3.70 | –
O=S(=O)(Nc1ccccc1Cl)c1ccccc1 | < 3.70 | 4.08 | –
NC(CSS(=O)(=O)O)=NCCCCOc1ccccc1 | < 3.70 | 4.04 | –
O=c1[nH]n2c(=O)cc[nH]c2c1-c1nnns1 | < 4.51 | < 4.51 | –
COc1cc(NCC2COc3c(ccc(OC)c3OC)C2=O)c([N+](=O)[O-])cc1OC (stereo unspecified) | < 3.70 | 3.73 | –
COc1ccccc1NC(=O)CC(=O)N1N=C(N2c3ccccc3Sc3ccccc32)CC1c1ccccc1 (stereo unspecified) | < 3.70 | < 3.70 | –
O=C(O/N=C1/CCC/C1=C\c1ccccc1)c1ccc(Cl)cc1 | – | – | inactive
N[C@@H](CCC(=O)NC(Cc1ccccc1)C(=O)NCP(=O)(O)O)C(=O)O (stereo partly specified) | < 3.70 | < 3.70 | –
Cc1ccc(S(=O)(=O)N/N=C/c2oc(-c3ccncc3)c(-c3ccncc3)c2[N+](=O)[O-])cc1 | < 4.81 | < 4.81 | –
O=C(CSC(=S)N1CCCCC1)Nc1nc2c(s1)CCCC2 | < 4.42 | < 4.42 | –
